This assay concerns the target T1, PKM2 (pyruvate kinase M2) (Homo sapiens, UniProt P14618).
T1 construct: gene PKM; recombinant human PKM2 (Sigma-Aldrich #SAE0021)
Description: LDH-coupled PKM2 activity assay; confirmed by ATP production (CellTiter-Glo). It is filed as biochemical.

T1 sequence (P14618 2-531): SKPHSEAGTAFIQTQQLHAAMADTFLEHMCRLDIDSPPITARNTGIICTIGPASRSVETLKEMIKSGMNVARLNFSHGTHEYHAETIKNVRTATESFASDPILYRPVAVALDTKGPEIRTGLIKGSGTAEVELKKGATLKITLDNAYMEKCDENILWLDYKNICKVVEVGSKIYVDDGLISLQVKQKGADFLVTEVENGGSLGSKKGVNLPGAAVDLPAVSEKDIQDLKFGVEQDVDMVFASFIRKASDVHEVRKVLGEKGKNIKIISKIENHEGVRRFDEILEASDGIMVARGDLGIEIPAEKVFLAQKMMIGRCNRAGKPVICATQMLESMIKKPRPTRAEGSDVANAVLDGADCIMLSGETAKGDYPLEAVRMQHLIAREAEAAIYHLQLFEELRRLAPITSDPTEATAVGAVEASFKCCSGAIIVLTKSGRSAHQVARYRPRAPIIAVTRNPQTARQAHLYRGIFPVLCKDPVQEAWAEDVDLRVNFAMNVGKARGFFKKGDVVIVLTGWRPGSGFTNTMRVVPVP

For the substance “methyl benzyl((4-chlorophenyl)(3-((methoxycarbonyl)oxy)-1,4-dioxo-1,4-dihydronaphthalen-2-yl)methyl)carbamate [MB-6a]”, it took 1.04 µM to reach half-maximal inhibition (IC50).
